Calls of active or inactive are those of the source. No cut-off for these calls is given here.
Legend:
[1] = biological target: T1, Acid-sensing ion channel 3 (Homo sapiens) (UniProt Q9UHC3); test: Inhibition of ASIC3 at 1 uM by patch-clamp electrophysiology assay relative to baseline peak current
T1 sequence (whole entry): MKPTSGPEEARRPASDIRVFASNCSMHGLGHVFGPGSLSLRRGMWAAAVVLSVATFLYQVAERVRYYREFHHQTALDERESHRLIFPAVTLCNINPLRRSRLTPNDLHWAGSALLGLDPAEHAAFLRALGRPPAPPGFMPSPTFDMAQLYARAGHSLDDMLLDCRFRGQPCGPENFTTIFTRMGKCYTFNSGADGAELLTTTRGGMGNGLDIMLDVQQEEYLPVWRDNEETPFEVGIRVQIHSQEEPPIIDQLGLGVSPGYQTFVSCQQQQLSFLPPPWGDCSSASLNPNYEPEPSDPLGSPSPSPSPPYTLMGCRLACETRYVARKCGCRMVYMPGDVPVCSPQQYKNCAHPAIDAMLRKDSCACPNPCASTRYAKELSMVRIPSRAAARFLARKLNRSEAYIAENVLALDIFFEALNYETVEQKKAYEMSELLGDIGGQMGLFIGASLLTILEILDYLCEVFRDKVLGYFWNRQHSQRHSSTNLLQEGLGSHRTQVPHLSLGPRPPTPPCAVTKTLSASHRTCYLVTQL

[2] = biological target: T2, Acid-sensing ion channel 3 (Homo sapiens, UniProt Q9UHC3); test: Inhibition of ASIC3 by patch-clamp electrophysiology assay
T2 sequence (Q9UHC3 whole entry): T1 sequence (whole entry)

[3] = biological target: T1, Acid-sensing ion channel 3 (Homo sapiens); test: Inhibition of ASIC3 at 10 uM by patch-clamp electrophysiology assay relative to baseline peak current
[4] = Half life in iv dosed rat plasma; format: ADME, organism-based
[5] = Plasma clearance in iv dosed rat; format: ADME, organism-based
[6] = Blood clearance in iv dosed rat; format: ADME, organism-based; conditions: whole blood
Rattus norvegicus [7] = test: Analgesic activity against complete Freund's adjuvant-induced […] in Sprague-Dawley rat assessed as reversal of mechanical hypersensitivity at 30 mg/kg, ip after 30 mins; format: functional, organism-based; design: dose 30 mg/kg
[8] = Half life in iv dosed rat blood; format: ADME, organism-based; conditions: whole blood
Rattus norvegicus [9] = test: Analgesic activity against complete Freund's adjuvant-induced […] in Sprague-Dawley rat assessed as reversal of mechanical hypersensitivity at 20 mg/kg, po after 30 mins; format: functional, organism-based; design: dose 20 mg/kg

| inhibition [1] [%] | IC50 [2] [nM] | inhibition [3] [%] | Compound | also measured |
| --- | --- | --- | --- | --- |
| 78 | 95 |  | N=C(N)c1ccc2[nH]c(-c3cc(N)cc(Cl)c3)cc2c1 |  |
| 92 | 59 | 92 | N=C(N)c1ccc2[nH]c(-c3cc(Br)cc(Br)c3)cc2c1 |  |
| 84 | 291 |  | N=C(N)c1ccc2[nH]c(-c3cc(Cl)nc(Cl)c3)cc2c1 |  |
| 87 | 51 |  | Cc1cc(Cl)cc(-c2cc3cc(C(=N)N)ccc3[nH]2)c1 |  |
| 94 |  |  | N=C(N)c1ccc2[nH]c(-c3cc(Cl)cc(-c4ccccc4)c3)cc2c1 |  |
|  | 2760 | 88 | N=C(N)c1ccc2[nH]c(-c3ccccc3)cc2c1 |  |
| 77 | 374 | 98 | COc1cc(F)cc(-c2cc3cc(C(=N)N)ccc3[nH]2)c1 |  |
| 92 | 133 | 98 | N=C(N)c1ccc2[nH]c(-c3cc(Cl)cc(Cl)c3)cc2c1 | half-life [4]: 2 h; clearance [5]: 8.5 mL/min/kg; clearance [6]: 8.5 mL/min/kg; Activity (Rattus norvegicus [7]): Active; half-life [8]: 4.4 h; Activity (Rattus norvegicus [9]): Active |
| 93 | 59 | 96 | N=C(N)c1ccc2[nH]c(-c3cc(F)cc(Br)c3)cc2c1 |  |
| 82 | 278 | 99 | N=C(N)c1ccc2[nH]c(-c3cc(F)cc(Cl)c3)cc2c1 |  |

Further lines, the molecule ahead of its results:

| Compound | inhibition [1] [%] | IC50 [2] [nM] | inhibition [3] [%] | also measured |
| --- | --- | --- | --- | --- |
| Cn1c(-c2ccc(C(=N)N)cc2)cc2cc(C(=N)N)ccc21 | 14 |  |  |  |
| N#Cc1c(Cl)cc(-c2cc3cc(C(=N)N)ccc3[nH]2)cc1Cl | 83 | 272 |  |  |
| N=C(N)c1ccc2[nH]c(-c3cc(Cl)cc(Cl)c3Cl)cc2c1 | 91 | 135 |  |  |
| N=C(N)c1ccc2[nH]c(-c3cc(Cl)cc(NCc4ccccc4)c3)cc2c1 | 91 | 77 |  |  |
| N=C(N)c1ccc(-c2cc3ccccc3[nH]2)cc1 |  |  | 46 |  |
| N=C(N)c1ccc(-c2cc3ccc(C(=N)N)cc3[nH]2)cc1 | 33 |  | 83 |  |
| N=C(N)c1ccc(-c2nc3cc(C(=N)N)ccc3[nH]2)cc1 |  |  | 53 |  |
| N=C(N)c1ccc2[nH]c(-c3cc(Cl)cc(CNc4ccccc4)c3)cc2c1 | 83 | 114 |  |  |
| N=C(N)c1ccc2cc(-c3ccccc3)[nH]c2c1 | 18 |  |  |  |
